In patent US20240325409A1, “Fused Heterotetracyclic Antiviral Agents” (Enanta Pharmaceuticals, Inc., priority 2023, published 2024):
pEC50: −log10 of the molar value.

Test system: HBV
Test: HBV infection of HepG2-NTCP cells, HBeAg AlphaLISA readout
Format: cell-based
Settings: Hepatitis B virus, 192 h, 2000 GE/cell, HBeAg in supernatant at day 8 post infection, 50% reduction relative to DMSO controls, read-out: Cellular EC50
Description: (§1) HepG2-NTCP A3 cells were maintained in DMEM media supplemented with GlutaMAX™, 10% fetal bovine serum, 1% penicillin/streptomycin, and 5 ug/mL puromycin at 37° C. in a humidified atmosphere with 5% CO2 in a collagen-coated tissue culture flask.
HepG2-NTCP cells were seeded in 384 well plate containing 16,000 cells/well two days prior to the infection. On the day of infection, compounds were 3-fold serially diluted in DMSO and pre-incubated with HepG2-NTCP cells for two hours before purified HBV addition. HBV infection was carried out at 2000 GE/cell with 4% PEG, and the final concentration of DMSO is 0.5%. On day one post infection, HBV-containing media was aspirated, cells were washed once with PBS and then maintained in 2.5% DMSO containing media for the remainder of the assay.
Supernatants from infected HepG2-NTCP cells were collected at day 8 post infection, and the amount of viral antigen HBeAg was measured by HBeAg AlphaLISA detection kit (PerkinElmer) following the manufacturer's recommended protocol. Irrespective of readout, compound concentrations that reduce viral product accumulation in supernatants by 50% relative to DMSO controls (EC50) are reported. EC50 ranges are as follows: A<0.1 µM; B 0.1-1 µM; C>1 µM.

SMILES	pEC50
CN1[C@H](C2CCC2)CN(c2ccccc2)c2cc3c(cc2S1(=O)=O)-c1cc(C(=O)O)ccc1CO3 [Example 1, (R)-10-cyclobutyl-11-methyl-8-phenyl-8,9,10,11-tetrahydro-5H-benzo[3,4]chromeno[7,6-f][1,2,5]thiadiazepine-2-carboxylic acid 12,12-dioxide]	6.00 to 7.00
CCCC[C@@H]1CN(c2ccccc2)c2cc3c(cc2S(=O)(=O)N1C)-c1cc(C(=O)O)ccc1OCCO3 [Example 35, (R)-12-butyl-13-methyl-10-phenyl-6,7,10,11,12,13-hexahydrobenzo[7′,8′][1,4]dioxocino[6′,5′:4,5]benzo[1,2-f][1,2,5]thiadiazepine-2-carboxylic acid 14,14-dioxide]	6.00 to 7.00
CN1[C@H](C2CCC2)CN(c2ccccc2)c2cc3c(cc2S1(=O)=O)-c1sc(C(=O)O)cc1CO3 [Example 36, (R)-9-cyclobutyl-10-methyl-7-phenyl-7,8,9,10-tetrahydro-4H-thieno[3′,2′:3,4]chromeno[7,6-f][1,2,5]thiadiazepine-2-carboxylic acid 11,11-dioxide]	> 7.00
CCCN1C[C@@H](CC(C)C)N(C)S(=O)(=O)c2cc3c(cc21)OCc1c-3cc(C(=O)O)c(F)c1F [Example 37]	> 7.00
CC(C)C[C@@H]1CN(C2CC3(CCC3)C2)c2cc3c(cc2S(=O)(=O)N1C)-c1cc(C(=O)O)c(F)c(F)c1CO3 [Example 38]	> 7.00
CC(C)C[C@@H]1CN(C2CCC2)c2cc3c(cc2S(=O)(=O)N1C)-c1cc(C(=O)O)c(F)c(F)c1CO3 [Example 39]	6.00 to 7.00
COC(C)(C)CN1C[C@@H](CC(C)C)N(C)S(=O)(=O)c2cc3c(cc21)OCc1c-3cc(C(=O)O)c(F)c1F [Example 40]	6.00 to 7.00

Test system: HDV
Test: HDV infection of HepG2-NTCP cells, viral RNA by RT-qPCR
Format: cell-based
Settings: 288 h, 800 GE/cell, viral RNA at day 12 post infection, 50% reduction relative to DMSO controls, read-out: Cellular EC50
Description: as §1
HDV virus collected from the supernatants of HuH7-END cells was purified in the presence of 6% polyethylene glycol (PEG). Viral titer was then quantified by RT-qPCR using HDV specific primers against a reference standard. For HDV infection, HepG2-NTCP cells were seeded in 96-well plates at 60,000 cells/well. On the day of infection, compounds were 4-fold serially diluted in DMSO and pre-incubated with HepG2-NTCP cells for two hours before infecting with 800 GE/cell of HDV in 4% PEG. On day one post infection, HDV-containing media was aspirated, cells were washed once with PBS and then maintained in 2.5% DMSO containing media for the remainder of the assay. Viral RNA was isolated using RNeasy kits (Qiagen) at day 12 post infection and reverse transcribed into cDNA using High-Capacity RNA-to-cDNA Kit (Thermo Fisher). Relative HDV gene expression was quantified by RT-qPCR after normalization to expression of a housekeeping gene. Irrespective of readout, compound concentrations that reduce viral RNA by 50% relative to DMSO controls (EC50) are reported. EC50 ranges are as follows: A<0.1 µM; B 0.1-1 µM; C>1 µM.

SMILES	pEC50
CN1[C@H](C2CCC2)CN(c2ccccc2)c2cc3c(cc2S1(=O)=O)-c1cc(C(=O)O)ccc1CO3 [Example 1, (R)-10-cyclobutyl-11-methyl-8-phenyl-8,9,10,11-tetrahydro-5H-benzo[3,4]chromeno[7,6-f][1,2,5]thiadiazepine-2-carboxylic acid 12,12-dioxide]	> 7.00
